In patent US11267800B2, “Cyclohexyl acid triazole azines as LPA antagonists” (BRISTOL-MYERS SQUIBB COMPANY, priority 2017, dated 2022):

system: nerve-injured mice; test: not given; settings: pretreatment, nerve-injured mice (Inoue et al.); cited from earlier work

| SMILES | allodynia and hyperalgesia |
| --- | --- |
| C[C@@H](N)[C@H]1CC[C@H](C(=O)Nc2ccncc2)CC1 [Example Y-27632] | completely abolished |

system: human foetal lung fibroblasts; test: not given; settings: Tager et al.; cited from earlier work

| SMILES | chemotaxis of human foetal lung fibroblasts induced by BAL from IPF patients |
| --- | --- |
| Cc1noc(-c2ccc(CSCCC(=O)O)cc2)c1NC(=O)OC(C)c1ccccc1Cl (stereo not shown) [Ki16425] | blocked |

system: mouse epithelial renal cell line, MCT; test: not given; settings: co-treatment with LPA, MCT cells; cited from earlier work

| SMILES | LPA-induced increase in expression of CTGF |
| --- | --- |
| Cc1noc(-c2ccc(CSCCC(=O)O)cc2)c1NC(=O)OC(C)c1ccccc1Cl (stereo not shown) [Ki16425] | almost completely suppressed |

system: pancreatic cancer cell lines; test: not given; settings: highly peritoneal metastatic pancreatic cancer cell line (Yamada et al.); cited from earlier work

| SMILES | LPA-induced and ascites-induced invasion activity |
| --- | --- |
| Cc1noc(-c2ccc(CSCCC(=O)O)cc2)c1NC(=O)OC(C)c1ccccc1Cl (stereo not shown) [Ki16425] | blocked |

same assay, conditions: pancreatic cancer cell lines (Yamada et al.); cited from earlier work

| SMILES | in vitro migration in response to LPA and peritoneal fluid (ascites) from pancreatic cancer patients |
| --- | --- |
| Cc1noc(-c2ccc(CSCCC(=O)O)cc2)c1NC(=O)OC(C)c1ccccc1Cl (stereo not shown) [Ki16425] | effectively blocked |

system: UUO mice; test: not given; settings: cited from earlier work

| SMILES | development of renal fibrosis |
| --- | --- |
| Cc1noc(-c2ccc(CSCCC(=O)O)cc2)c1NC(=O)OC(C)c1ccccc1Cl (stereo not shown) [Ki16425] | closely resembled the profile of LPA1 (−/−) mice |

system: IPF patients; test: not given; settings: 26-week clinical trial in IPF patients (Palmer et al.); cited from earlier work

| SMILES | rate of FVC (forced vital capacity) decline |
| --- | --- |
| Cc1noc(-c2ccc(-c3ccc(C4(C(=O)O)CC4)cc3)cc2)c1NC(=O)O[C@H](C)c1ccccc1 [BMS-986020] | significantly reduce |

molecular target: T1, human LPA1 (Homo sapiens, UniProt Q92633); test: LPA1 functional antagonist assay (calcium flux); format: cell-based; settings: CHO cells overexpressing human LPA1; inhibition of calcium flux induced by 10 nM LPA; read-out: hLPA1 IC50
T1 construct: expressed in transfected cells; host or cells: Chinese hamster ovary (CHO) cells
How it was run: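 Dye-loaded CHO cells overexpressing human LPA1 (30 min, 37 °C) were preincubated 20 min at room temperature with compound (0.08 nM–5 μM; 0.5% DMSO; HBSS, 20 mM HEPES, 0.1% fatty-acid-free BSA), then stimulated with 10 nM LPA. IC50 is the concentration inhibiting 50% of LPA-induced calcium flux, from a 4-parameter logistic fit.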

T1 sequence (Q92633 whole entry): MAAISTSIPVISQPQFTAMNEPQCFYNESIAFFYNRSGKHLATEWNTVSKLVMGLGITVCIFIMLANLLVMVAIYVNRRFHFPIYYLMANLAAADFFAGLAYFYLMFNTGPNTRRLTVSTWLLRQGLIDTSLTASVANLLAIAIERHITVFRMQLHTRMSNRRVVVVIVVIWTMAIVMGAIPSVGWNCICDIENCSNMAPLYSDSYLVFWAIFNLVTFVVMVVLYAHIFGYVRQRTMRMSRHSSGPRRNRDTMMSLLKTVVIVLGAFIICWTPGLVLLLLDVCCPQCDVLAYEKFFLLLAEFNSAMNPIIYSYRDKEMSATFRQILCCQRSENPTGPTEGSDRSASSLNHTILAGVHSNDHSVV

| SMILES | IC50 |
| --- | --- |
| COCCCCOc1cc(OCc2c(-c3ccc(O[C@H]4CCC[C@H](C(=O)O)C4)c(C)n3)nnn2C)ncn1 [Example 360] | 100 nM |
| Cc1nc(-c2nnn(C)c2COc2cc(OCCOC(C)C)ncn2)ccc1O[C@H]1CCC[C@H](C(=O)O)C1 [Example 361] | 523 nM |
| CCOCCOc1cc(OCc2c(-c3ccc(O[C@H]4CCC[C@H](C(=O)O)C4)c(C)n3)nnn2C)ncn1 [Example 362] | 96 nM |
| CSc1cc(OCc2c(-c3ccc(O[C@H]4CCC[C@H](C(=O)O)C4)c(C)n3)nnn2C)ncn1 [Example 363] | 22 nM |
| CSc1cc(NCc2c(-c3ccc(O[C@H]4CCC[C@H](C(=O)O)C4)c(C)n3)nnn2C)ncn1 [Example 364] | 98 nM |
| Cc1nc(-c2nnn(C)c2CNc2cc(C(F)F)ncn2)ccc1O[C@H]1CCC[C@H](C(=O)O)C1 [Example 365] | 117 nM |
| Cc1nc(-c2nnn(C)c2CNc2nccc(C(F)F)n2)ccc1O[C@H]1CCC[C@H](C(=O)O)C1 [Example 366] | 135 nM |
| CSc1ccnc(OCc2c(-c3ccc(O[C@H]4CCC[C@H](C(=O)O)C4)c(C)n3)nnn2C)n1 [Example 367] | 7.9 nM |
| Cn1nnc(-c2ccc(O[C@H]3CCC[C@H](C(=O)O)C3)cn2)c1COc1cc(C(F)(F)F)ncn1 [Example 368] | 79 nM |
| Cc1nc(-c2nnn(C)c2COc2cc(-n3cccn3)ncn2)ccc1O[C@H]1CCC[C@H](C(=O)O)C1 [Example 369] | 8.4 nM |
| Cc1nc(-c2nnn(C)c2COc2nccc(C(C)(F)F)n2)ccc1O[C@H]1CCC[C@H](C(=O)O)C1 [Example 370] | 21 nM |
| Cc1nc(-c2nnn(C)c2CNc2cc(C3CC3)ccn2)ccc1O[C@H]1CCC[C@H](C(=O)O)C1 [Example 371, (1S,3S)-3-((6-(5-(((4-cyclopropylpyridin-2-yl)amino)methyl)-1-methyl-1H-1,2,3-triazol-4-yl)-2-methylpyridin-3-yl)oxy)cyclohexane-1-carboxylic acid] | 16 nM |
| Cc1nc(-c2nnn(C)c2CNc2cc(-c3ccccc3)c(Cl)nn2)ccc1O[C@H]1CCC[C@H](C(=O)O)C1 [Example 372, (1S,3S)-3-((6-(5-(((6-chloro-5-phenylpyridazin-3-yl)amino)methyl)-1-methyl-1H-1,2,3-triazol-4-yl)-2-methylpyridin-3-yl)oxy)cyclohexane-1-carboxylic acid] | 199 nM |
| Cc1nc(-c2nnn(C)c2CNc2cc(C3CC3)ncn2)ccc1O[C@H]1CCC[C@H](C(=O)O)C1 [Example 373] | 80 nM |
| Cc1nc(-c2nnn(C)c2CNc2ccnc(C3CC3)n2)ccc1O[C@H]1CCC[C@H](C(=O)O)C1 [Example 374] | 90 nM |
| Cc1nc(-c2nnn(C)c2Cc2cccc(-c3ccccc3)n2)ccc1O[C@H]1CCC[C@H](C(=O)O)C1 [Example 376] | 110 nM |
| Cc1nc(-c2nnn(C)c2Cc2cc(-c3ccccc3)ccn2)ccc1O[C@H]1CCC[C@H](C(=O)O)C1 [Example 377] | 7.2 nM |
| Cc1nc(-c2nnn(C)c2Cc2nccc(-c3ccccc3)n2)ccc1O[C@H]1CCC[C@H](C(=O)O)C1 [Example 378] | 24.9 nM |
| Cc1nc(-c2nnn(C)c2CN(C)c2ncnc(C3CC3)n2)ccc1O[C@H]1CCC[C@H](C(=O)O)C1 [Example 379, (1S,3S)-3-{[6-(5-{[(4-cyclopropyl-1,3,5-triazin-2-yl)(methyl)amino]methyl}-1-methyl-1H-1,2,3-triazol-4-yl)-2-methylpyridin-3-yl]oxy}cyclohexane-1-carboxylic acid] | 93 nM |
| CCCc1cncc(NCc2c(-c3ccc(O[C@H]4CCC[C@H](C(=O)O)C4)c(C)n3)nnn2C)n1 [Example 380, (1S,3S)-3-((2-Methyl-6-(1-methyl-5-(((6-propylpyrazin-2-yl)amino)methyl)-1H-1,2,3-triazol-4-yl)pyridin-3-yl)oxy)cyclohexane-1-carboxylic acid] | 94 nM |
| CCCCc1ncnc(N(C)Cc2c(-c3ccc(O[C@H]4CCC[C@H](C(=O)O)C4)c(C)n3)nnn2C)n1 [Example 381] | 38 nM |
| CCCCc1cncc(NCc2c(-c3ccc(O[C@H]4CCC[C@H](C(=O)O)C4)c(C)n3)nnn2C)n1 [Example 382] | 12 nM |
| Cc1nc(-c2nnn(C)c2CNc2nccc(OC3CC3)n2)c(F)cc1O[C@H]1CCC[C@H](C(=O)O)C1 [Example 383] | 227 nM |
| CCOc1ccnc(NCc2c(-c3nc(C)c(O[C@H]4CCC[C@H](C(=O)O)C4)cc3F)nnn2C)n1 [Example 384] | 48 nM |

| SMILES | IC50 |
| --- | --- |
| CCc1nc(-c2nnn(C)c2CNc2nccc(C(C)(C)C)n2)ccc1O[C@H]1CCC[C@H](C(=O)O)C1 [Example 385] | 41 nM |
| CCc1nc(-c2nnn(C)c2CNc2nccc(OC)n2)ccc1O[C@H]1CCC[C@H](C(=O)O)C1 [Example 386] | 460 nM |
| CCc1nc(-c2nnn(C)c2CNc2nccc(C3CCC3)n2)ccc1O[C@H]1CCC[C@H](C(=O)O)C1 [Example 387] | 24 nM |
| CCc1nc(-c2nnn(C)c2CNc2nccc(C3CC3)n2)ccc1O[C@H]1CCC[C@H](C(=O)O)C1 [Example 388] | 45 nM |
| CCc1nc(-c2nnn(C)c2CNc2nccc(C(C)C)n2)ccc1O[C@H]1CCC[C@H](C(=O)O)C1 [Example 389] | 9.3 nM |
| CCc1nc(-c2nnn(C)c2CNc2nccc(OC3CC3)n2)ccc1O[C@H]1CCC[C@H](C(=O)O)C1 [Example 390] | 17 nM |
| CCc1nc(-c2nnn(C)c2CNc2ccnc(OC3CC3)n2)ccc1O[C@H]1CCC[C@H](C(=O)O)C1 [Example 391] | 208 nM |
| CCCOc1ccnc(NCc2c(-c3ccc(O[C@H]4CCC[C@H](C(=O)O)C4)c(CC)n3)nnn2C)n1 [Example 392] | 15 nM |
| CCOc1ccnc(NCc2c(-c3ccc(O[C@H]4CCC[C@H](C(=O)O)C4)c(CC)n3)nnn2C)n1 [Example 393] | 15 nM |
| Cc1nc(-c2nnn(C)c2Nc2nccc(OCCC(F)(F)F)n2)ccc1O[C@H]1CCC[C@H](C(=O)O)C1 [Example 394] | 103 nM |
| Cc1nc(-c2nnn(C)c2Nc2nccc(OCCCF)n2)ccc1O[C@H]1CCC[C@H](C(=O)O)C1 [Example 395] | 51 nM |
| Cc1nc(-c2nnn(C)c2Nc2nccc(OCC(F)(F)F)n2)ccc1O[C@H]1CCC[C@H](C(=O)O)C1 [Example 396] | 42 nM |
| Cc1nc(-c2nnn(C)c2CNc2cccc(Cc3ccccc3)n2)ccc1O[C@H]1CCC[C@H](C(=O)O)C1 [Example 397] | 1030 nM |
| CCCc1cccc(NCc2c(-c3ccc(O[C@H]4CCC[C@H](C(=O)O)C4)c(C)n3)nnn2C)n1 [Example 398] | 27 nM |
| Cc1nc(-c2nnn(C)c2CNc2cccc(C3CC3)n2)ccc1O[C@H]1CCC[C@H](C(=O)O)C1 [Example 399] | 531 nM |
| Cc1nc(-c2nnn(C)c2CCNc2nccc(C(C)(C)C)n2)ccc1O[C@H]1CCC[C@H](C(=O)O)C1 [Example 400, (1S,3S)-3-((6-(5-(2-((4-(tert-butyl)pyrimidin-2-yl)amino)ethyl)-1-methyl-1H-1,2,3-triazol-4-yl)-2-methylpyridin-3-yl)oxy)cyclohexane-1-carboxylic acid] | 679 nM |
| Cc1nc(-c2nnn(C)c2CCNc2nccc(C(C)C)n2)ccc1O[C@H]1CCC[C@H](C(=O)O)C1 [Example 401] | 1590 nM |
| CCOc1cc(C2CCC2)nc(NCc2c(-c3ccc(O[C@H]4CCC[C@H](C(=O)O)C4)c(C)n3)nnn2C)n1 [Example 402] | 36 nM |
| Cn1nnc(-c2ccc(O[C@H]3CCC[C@H](C(=O)O)C3)cn2)c1CNc1ccnc(OCC2(C)CC2)n1 [Example 403] | 2310 nM |
| Cn1nnc(-c2ccc(O[C@H]3CCC[C@H](C(=O)O)C3)cn2)c1COc1nccc(C(F)(F)F)n1 [Example 404] | 173 nM |
| Cc1nc(-c2nnn(C)c2COc2cc(-n3ccnn3)ncn2)ccc1O[C@H]1CCC[C@H](C(=O)O)C1 [Example 405] | 129 nM |
| CC(C)c1ccnc(NCc2c(-c3ccc(O[C@H]4CCC[C@H](C(=O)O)C4)c(C#N)n3)nnn2C)n1 [Example 406] | 18 nM |
| Cn1nnc(-c2ccc(O[C@H]3CCC[C@H](C(=O)O)C3)c(C#N)n2)c1CNc1nccc(C(C)(C)C)n1 [Example 407] | 104 nM |
| CCCOc1ccnc(NCc2c(-c3ccc(O[C@H]4CCC[C@H](C(=O)O)C4)c(C#N)n3)nnn2C)n1 [Example 408] | 22 nM |
